Data from PMC11301636, “Supramolecular delivery of dinuclear ruthenium and osmium MCU inhibitors” (Inorganic Chemistry Frontiers, 2024).

Key:
[1] = biological target: T1, mitochondrial calcium uniporter (MCU) (Homo sapiens, UniProt Q8NE86); assay: mCa2+ uptake inhibition in digitonin-permeabilized HEK293T cells (Calcium Green 5N); format: cell-based
T1 sequence (Q8NE86 51-351): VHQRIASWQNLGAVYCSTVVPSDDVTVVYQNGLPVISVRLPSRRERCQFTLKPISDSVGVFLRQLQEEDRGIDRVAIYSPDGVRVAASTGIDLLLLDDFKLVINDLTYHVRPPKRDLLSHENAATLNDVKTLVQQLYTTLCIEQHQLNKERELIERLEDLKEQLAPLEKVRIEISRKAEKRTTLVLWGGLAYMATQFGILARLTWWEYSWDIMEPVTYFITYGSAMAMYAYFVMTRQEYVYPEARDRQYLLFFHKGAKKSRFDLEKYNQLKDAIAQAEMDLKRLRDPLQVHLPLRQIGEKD

[2] = biological target: T1, mitochondrial calcium uniporter (MCU); assay: mCa2+ uptake inhibition in digitonin-permeabilized HEK293T cells; format: cell-based

Os245
IC50 [1]: 5.7 ± 0.3 nM | IC50 [2]: 90.9 ± 1.3 nM
